According to ChEMBL document CHEMBL1151823, “5-Bromo-8-methoxy-1-methyl-beta-carboline, an alkaloid from the New Zealand marine bryozoan Pterocella vesiculosa” (J Nat Prod, 2009):
Converted amounts (≈) assume the structure as drawn.

Assays:
[1] = tested on: Candida albicans; assay: Antimicrobial activity against Candida albicans measured per disk; assay type: functional
[2] = tested on: Trichophyton mentagrophytes; assay: Antimicrobial activity against Trichophyton mentagrophytes measured per disk; assay type: functional
[3] = tested on: Bacillus subtilis; assay: Antimicrobial activity against Bacillus subtilis measured per disk; assay type: functional
[4] = tested on: P388; assay: Cytotoxicity against mouse P388 cells; assay type: functional, cell-based

SMILES	MID [1] [µg/mL]	MID [2] [µg/mL]	MID [3] [µg/mL]	IC50 [4] [mg/L]
C=Cc1[nH]ccc2c3ccccc3nc1-2	1.9	0.1	1.9	0.1 (≈ 0.515 µM)
CCc1nccc2c1[nH]c1ccccc12	1.9	1.9	7.5	> 12.5
C=Cc1nccc2c1[nH]c1c(O)cccc12	15	0.45	7.5	0.1 (≈ 0.476 µM)
C=Cc1nccc2c1[nH]c1c(OC)cccc12	15	0.45	7.5	0.1 (≈ 0.446 µM)
COc1ccc(Br)c2c1[nH]c1c(C)nccc12	7.5	7.5	2	5.09 (≈ 17.5 µM)
CCc1nccc2c1[nH]c1c(O)cccc12	30	30	30	> 12.5
CCc1nccc2c1[nH]c1c(OC)cccc12	7.5	7.5	>60	> 12.5
C=Cc1nccc2c1[nH]c1c(OC(C)=O)cccc12				0.65 (≈ 2.58 µM)
Cc1nccc2c1[nH]c1ccccc12 [HARMAN]	1.9	3.7	7.5	> 12.5
